Assay results: US8673908B2, “Kynurenine production inhibitor” (Kyowa Hakko Kirin Co., Ltd., priority 2008, dated 2014)

test system: kynurenine production in IFN-γ-treated KATO-III cells; experiment: Inhibitory activity on kynurenine production (Test Example 1); format: cell-based; details: Homo sapiens, IFN-γ treatment, culture for 96 hours, read-out: IC50 value, inhibition of kynurenine production
In short: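 KATO-III human gastric cancer cells (2,000/well, RPMI 1640 + 10% FBS) were cultured with compound and IFN-γ (31.25 ng/mL in the cell suspension), DMSO ≤0.1%, for 96 h at 37 °C, 5% CO2. Kynurenine was read at A480 after TCA at 65 °C and p-dimethylaminobenzaldehyde. Inhibition used IFN-γ-treated and untreated DMSO wells as references.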

Row | SMILES | IC50 [nM]
1 | O=S(=O)(Nc1nc2ccccc2nc1OC(c1cnc(-c2ccccc2)s1)C(F)(F)F)c1ccccc1Cl (stereo not drawn) [Compound 134, 2-chloro-N-{3-[2,2,2-trifluoro-1-(2-phenylthiazol-5-yl)-ethoxy]quinoxalin-2-yl}benzenesulfonamide] | < 1000
2 | CCCS(=O)(=O)Nc1nc2ccccc2nc1OC(c1cc2ccccc2n1C)C(F)(F)F (stereo not drawn) [Compound 135, N-{3-[2,2,2-trifluoro-1-(1-methyl-1H-indol-2-yl)ethoxy]-quinoxalin-2-yl}propane-1-sulfonamide] | < 1000
3 | O=S(=O)(Nc1nc2ccccc2nc1OC(C1CCOC1)C(F)(F)F)c1ccccc1Cl (stereo not drawn) [Compound 136, 2-chloro-N-{3-[2,2,2-trifluoro-1-(tetrahydrofuran-3-yl)-ethoxy]quinoxalin-2-yl}benzenesulfonamide] | < 1000
4 | O=S(=O)(Nc1nc2ccccc2nc1OC(c1cccnc1)C(F)(F)F)C1CC1 (stereo not drawn) [Compound 150, N-{3-[2,2,2-trifluoro-1-(pyridin-3-yl)ethoxy]quinoxalin-2-yl}cyclopropanesulfonamide] | < 1000
5 | O=S(=O)(Nc1nc2ccccc2nc1OC(c1cccnc1)C(F)(F)F)c1cc(Cl)cc(Cl)c1 (stereo not drawn) [Compound 152, 3,5-dichloro-N-{3-[2,2,2-trifluoro-1-(pyridin-3-yl)ethoxy]-quinoxalin-2-yl}benzenesulfonamide] | < 1000
6 | O=S(=O)(Nc1nc2ccccc2nc1OC(c1cccnc1)C(F)(F)F)c1cc(F)cc(F)c1 (stereo not drawn) [Compound 153, 3,5-difluoro-N-{3-[2,2,2-trifluoro-1-(pyridin-3-yl)ethoxy]-quinoxalin-2-yl}benzenesulfonamide] | < 1000
7 | Cc1noc(C)c1S(=O)(=O)Nc1nc2ccccc2nc1OC(c1cccnc1)C(F)(F)F (stereo not drawn) [Compound 155, 3,5-dimethyl-N-{3-[2,2,2-trifluoro-1-(pyridin-3-yl)ethoxy]-quinoxalin-2-yl}isoxazole-4-sulfonamide] | < 1000
8 | O=S(=O)(Nc1nc2ccccc2nc1OCCCc1cccnc1)c1cccc(Cl)c1Cl [Compound 159, 2,3-dichloro-N-{3-[3-(pyridin-3-yl)propoxy]quinoxalin-2-yl}benzenesulfonamide] | < 1000
9 | CN1CCOc2cc(S(=O)(=O)Nc3nc4ccccc4nc3OC(c3cccnc3)C(F)(F)F)ccc21 (stereo not drawn) [Compound 165, 4-methyl-N-{3-[2,2,2-trifluoro-1-(pyridin-3-yl)ethoxy]-quinoxalin-2-yl}-3,4-dihydro-2H-benzo[b][1,4]oxazine-7-sulfonamide] | < 1000
10 | CC(C)(COc1nc2ccccc2nc1NS(=O)(=O)c1ccccc1Cl)c1cccnc1 [Compound 167, 2-chloro-N-{3-[2-methyl-2-(pyridin-3-yl)propoxy]quinoxalin-2-yl}benzenesulfonamide] | < 1000
11 | CC(C)S(=O)(=O)Nc1nc2ccccc2nc1OC(c1cccnc1)C(F)(F)F (stereo not drawn) [Compound 168, N-{3-[2,2,2-trifluoro-1-(pyridin-3-yl)ethoxy]quinoxalin-2-yl}propane-2-sulfonamide] | < 1000
12 | O=S(=O)(Nc1nc2ccccc2nc1OC(c1cccnc1)C(F)(F)F)C1CCCC1 (stereo not drawn) [Compound 169, N-{3-[2,2,2-trifluoro-1-(pyridin-3-yl)ethoxy]quinoxalin-2-yl}cyclopentanesulfonamide] | < 1000
13 | Cc1nn(C)c(Cl)c1S(=O)(=O)Nc1nc2ccccc2nc1OC(c1cncn1C)C(F)(F)F (stereo not drawn) [Compound 170, 5-chloro-1,3-dimethyl-N-{3-[2,2,2-trifluoro-1-(1-methyl-1H-imidazol-5-yl)ethoxy]quinoxalin-2-yl}-1H-pyrazole-4-sulfonamide] | < 1000
14 | Cc1noc(C)c1S(=O)(=O)Nc1nc2ccccc2nc1OC(c1cncn1C)C(F)(F)F (stereo not drawn) [Compound 171, 3,5-dimethyl-N-{3-[2,2,2-trifluoro-1-(1-methyl-1H-imidazol-5-yl)ethoxy]quinoxalin-2-yl}isoxazole-4-sulfonamide] | < 1000
15 | CN(C)S(=O)(=O)Nc1nc2ccccc2nc1OC(c1cccnc1)C(F)(F)F (stereo not drawn) [Compound 174, N-{3-[2,2,2-trifluoro-1-(pyridin-3-yl)ethoxy]quinoxalin-2-yl}-N′,N′-dimethyl-sulfuric diamide] | < 1000
16 | Cn1cncc1C(Oc1nc2ccccc2nc1NS(=O)(=O)c1ccccc1Cl)C(F)(F)F (stereo not drawn) [Compound 175, 2-chloro-N-{3-[2,2,2-trifluoro-1-(1-methyl-1H-imidazol-5-yl)ethoxy]quinoxalin-2-yl}benzenesulfonamide] | < 1000

The remaining lines, values ahead:

Row | IC50 [nM] | SMILES
17 | < 1000 | O=S(=O)(Nc1nc2ccccc2nc1OC(c1cccnc1)C(F)(F)F)c1ccccc1 (stereo not drawn) [Compound 137, N-{3-[2,2,2-trifluoro-1-(pyridin-3-yl)ethoxy]quinoxalin-2-yl}benzenesulfonamide]
18 | < 1000 | O=S(=O)(Nc1nc2ccccc2nc1OC(c1cccnc1)C(F)(F)F)c1ccccc1Cl (stereo not drawn) [Compound 138, 2-Chloro-N-{3-[2,2,2-trifluoro-1-(pyridin-3-yl)ethoxy]-quinoxalin-2-yl}benzenesulfonamide]
19 | < 1000 | O=S(=O)(Nc1nc2ccccc2nc1OC(c1cccnc1)C(F)(F)F)c1cccnc1 (stereo not drawn) [Compound 139, N-{3-[2,2,2-trifluoro-1-(pyridin-3-yl)ethoxy]quinoxalin-2-yl}pyridine-3-sulfonamide]
20 | < 1000 | O=S(=O)(Nc1nc2ccccc2nc1OC(c1cccnc1)C(F)(F)F)c1cccs1 (stereo not drawn) [Compound 140, N-{3-[2,2,2-trifluoro-1-(pyridin-3-yl)ethoxy]quinoxalin-2-yl}thiophene-2-sulfonamide]
21 | < 1000 | Cc1nn(C)c(Cl)c1S(=O)(=O)Nc1nc2ccccc2nc1OC(c1cccnc1)C(F)(F)F (stereo not drawn) [Compound 141, 5-chloro-1,3-dimethyl-N-{3-[2,2,2-trifluoro-1-(pyridin-3-yl)ethoxy]quinoxalin-2-yl}-1H-pyrazole-4-sulfonamide]
22 | < 1000 | Cc1cc(S(=O)(=O)Nc2nc3ccccc3nc2OC(c2cccnc2)C(F)(F)F)c(C(F)(F)F)o1 (stereo not drawn) [Compound 143, 5-methyl-N-{3-[2,2,2-trifluoro-1-(pyridin-3-yl)ethoxy]-quinoxalin-2-yl}-2-(trifluoromethyl)furan-3-sulfonamide]
23 | < 1000 | O=S(=O)(Nc1nc2ccccc2nc1OC(c1cccnc1)C(F)(F)F)c1ccccc1F (stereo not drawn) [Compound 144, 2-fluoro-N-{3-[2,2,2-trifluoro-1-(pyridin-3-yl)ethoxy]-quinoxalin-2-yl}benzenesulfonamide]
24 | < 1000 | O=S(=O)(Nc1nc2ccccc2nc1OC(c1cccnc1)C(F)(F)F)c1ccc(Cl)s1 (stereo not drawn) [Compound 146, 5-chloro-N-{3-[2,2,2-trifluoro-1-(pyridin-3-yl)ethoxy]-quinoxalin-2-yl}thiophene-2-sulfonamide]
25 | < 1000 | O=S(=O)(Cc1ccccc1)Nc1nc2ccccc2nc1OC(c1cccnc1)C(F)(F)F (stereo not drawn) [Compound 147, 1-phenyl-N-{3-[2,2,2-trifluoro-1-(pyridin-3-yl)ethoxy]-quinoxalin-2-yl}methanesulfonamide]
26 | 1000 to 10000 | CS(=O)(=O)Nc1nc2ccccc2nc1OC(c1cccnc1)C(F)(F)F (stereo not drawn) [Compound 148, N-{3-[2,2,2-trifluoro-1-(pyridin-3-yl)ethoxy]quinoxalin-2-yl}methanesulfonamide]
27 | < 1000 | O=S(=O)(Nc1nc2ccccc2nc1OC(c1cccnc1)C(F)(F)F)c1ccccc1OC(F)(F)F (stereo not drawn) [Compound 151, N-{3-[2,2,2-trifluoro-1-(pyridin-3-yl)ethoxy]quinoxalin-2-yl}-2-(trifluoromethoxy)benzenesulfonamide]
28 | < 1000 | Cc1ccccc1S(=O)(=O)Nc1nc2ccccc2nc1OC(c1cccnc1)C(F)(F)F (stereo not drawn) [Compound 156, 2-methyl-N-{3-[2,2,2-trifluoro-1-(pyridin-3-yl)ethoxy]-quinoxalin-2-yl}benzenesulfonamide]
29 | < 1000 | Nc1ccccc1S(=O)(=O)Nc1nc2ccccc2nc1OC(c1cccnc1)C(F)(F)F (stereo not drawn) [Compound 157, 2-amino-N-{3-[2,2,2-trifluoro-1-(pyridin-3-yl)ethoxy]-quinoxalin-2-yl}benzenesulfonamide]
30 | < 1000 | COc1ccccc1S(=O)(=O)Nc1nc2ccccc2nc1OC(c1cccnc1)C(F)(F)F (stereo not drawn) [Compound 158, 2-methoxy-N-{3-[2,2,2-trifluoro-1-(pyridin-3-yl)ethoxy]-quinoxalin-2-yl}benzenesulfonamide]
31 | < 1000 | O=S(=O)(Nc1nc2ccccc2nc1OC(c1cccnc1)C(F)(F)F)c1ccsc1 (stereo not drawn) [Compound 161, N-{3-[2,2,2-trifluoro-1-(pyridin-3-yl)ethoxy]quinoxalin-2-yl}thiophene-3-sulfonamide]
32 | < 1000 | Cc1cc(S(=O)(=O)Nc2nc3ccccc3nc2OC(c2cccnc2)C(F)(F)F)c(C)s1 (stereo not drawn) [Compound 162, 2,5-dimethyl-N-{3-[2,2,2-trifluoro-1-(pyridin-3-yl)ethoxy]-quinoxalin-2-yl}thiophene-3-sulfonamide]
33 | < 1000 | Cc1nc(C)c(S(=O)(=O)Nc2nc3ccccc3nc2OC(c2cccnc2)C(F)(F)F)s1 (stereo not drawn) [Compound 163, 2,4-dimethyl-N-{3-[2,2,2-trifluoro-1-(pyridin-3-yl)ethoxy]-quinoxalin-2-yl}thiazole-5-sulfonamide]
34 | < 1000 | O=S(=O)(Nc1nc2ccccc2nc1OC(c1cccnc1)C(F)(F)F)c1cc2ccccc2s1 (stereo not drawn) [Compound 164, N-{3-[2,2,2-trifluoro-1-(pyridin-3-yl)ethoxy]quinoxalin-2-yl}benzo[b]thiophene-2-sulfonamide]
35 | < 1000 | O=S(=O)(Nc1nc2ccccc2nc1OC(CCc1cccnc1)C(F)(F)F)c1ccccc1Cl (stereo not drawn) [Compound 172, 2-chloro-N-{3-[1,1,1-trifluoro-4-(pyridin-3-yl)butan-2-yloxy]quinoxalin-2-yl}benzenesulfonamide]
36 | < 1000 | O=S(=O)(Cc1ccccc1Cl)Nc1nc2ccccc2nc1OC(c1cccnc1)C(F)(F)F (stereo not drawn) [Compound 173, 1-(2-chlorophenyl)-N-{3-[2,2,2-trifluoro-1-(pyridin-3-yl)-ethoxy]quinoxalin-2-yl}methanesulfonamide]
